Experimental data reported in patent publication US20060154889A1, “Polyfluorinated nucleoside analogs and methods of use thereof” (priority 2004, published 2006).

Tested on: XTGAGCTCA
Assay: Dangling-end thermal denaturation, sequence XTGAGCTCA (Table 2)
Format: physicochemical
Settings: not given
Description: (§1) The dangling-end experimental method was utilized to evaluate the ability of the fluorinated aromatic base analogues to stabilize DNA duplexes when substituted directly adjacent to the helix. The relative stabilizations were measured by comparison of the energetics for helix—coil melting transition of the “core “duplex (lacking any “dangling “nucleotide) to that containing the extra nucleotide. Five short self-complementary sequence contexts were used; the sequences were chosen because they had been shown previously to be well-behaved thermodynamically in the dangling-end configuration. Data from two of the contexts are shown in Table 1, and data for the remaining three show similar trends. By use of these five contexts we were able to compare stacking effects of the base analogues with all four neighboring DNA bases in the helix.
(§2) Methods for thermodynamic measurements. Thermal denaturation. […] Solutions were then heated to 90° C. for 5 minutes and annealed by slowly cooling to room temperature and then to 0° C.

| SMILES | G stacking |
| --- | --- |
| OC[C@H]1O[C@@H](c2cc(F)c(F)c(F)c2F)C[C@@H]1O [2,3,4,5-tetrafluorophenyl, 1′,2′-dideoxy-β-1′-(2,3,4,5-tetrafluorophenyl)-D-ribofuranose] | 1.5 |
| OCC1OC(c2cc(F)c(F)cc2F)CC1O (stereo not drawn) [2,4,5-trifluorophenyl] | 1.5 |

Same assay, conditions: marker c

| SMILES | −G37 [kcal] | −H [kcal] | −S [eu] |
| --- | --- | --- | --- |
| OC[C@H]1O[C@@H](c2cc(F)c(F)c(F)c2F)C[C@@H]1O [2,3,4,5-tetrafluorophenyl, 1′,2′-dideoxy-β-1′-(2,3,4,5-tetrafluorophenyl)-D-ribofuranose] | 9.1 | 51.9 | 138 |
| OCC1OC(c2cc(F)c(F)cc2F)CC1O (stereo not drawn) [2,4,5-trifluorophenyl] | 9.2 | 53.8 | 144 |

Same assay, conditions: marker d

| SMILES | −G37 [kcal] |
| --- | --- |
| OC[C@H]1O[C@@H](c2cc(F)c(F)c(F)c2F)C[C@@H]1O [2,3,4,5-tetrafluorophenyl, 1′,2′-dideoxy-β-1′-(2,3,4,5-tetrafluorophenyl)-D-ribofuranose] | 9.2 |
| OCC1OC(c2cc(F)c(F)cc2F)CC1O (stereo not drawn) [2,4,5-trifluorophenyl] | 9.1 |

Tested on: (dCGCGCG)2 core duplex
Assay: Dangling-end thermal denaturation, sequence XCGCGCG (Table 1)
Format: physicochemical
Settings: (dCGCGCG)2 core duplex
Description: (§3) The dangling-end experimental method was utilized to evaluate the ability of the fluorinated aromatic base analogues to stabilize DNA duplexes when substituted directly adjacent to the helix. The relative stabilizations were measured by comparison of the energetics for helix-coil melting transition of the “core “duplex (lacking any “dangling “nucleotide) to that containing the extra nucleotide. Five short self-complementary sequence contexts were used; the sequences were chosen because they had been shown previously to be well-behaved thermodynamically in the dangling-end configuration. Data from two of the contexts are shown in Table 1, and data for the remaining three show similar trends. By use of these five contexts we were able to compare stacking effects of the base analogues with all four neighboring DNA bases in the helix. Methods for thermodynamic measurements. Thermal denaturation. […] Solutions were then heated to 90° C. for 5 minutes and annealed by slowly cooling to room temperature and then to 0° C. […] Calculations.

| SMILES | ΔΔG stacking (stability contributed) [kcalmol^−1] |
| --- | --- |
| OC[C@H]1O[C@@H](c2cc(F)c(F)c(F)c2F)C[C@@H]1O [2,3,4,5-tetrafluorophenyl, 1′,2′-dideoxy-β-1′-(2,3,4,5-tetrafluorophenyl)-D-ribofuranose] | −2.2 |

Same assay, conditions: XCGCGCG; 1 M NaCl, 10 mM sodium phosphate pH 7.0; 5.0 μM DNA-strand

| SMILES | Tm [°C] |
| --- | --- |
| OC[C@H]1O[C@@H](c2cc(F)c(F)c(F)c2F)C[C@@H]1O [2,3,4,5-tetrafluorophenyl, 1′,2′-dideoxy-β-1′-(2,3,4,5-tetrafluorophenyl)-D-ribofuranose] | 53.9 |
| OCC1OC(c2cc(F)c(F)cc2F)CC1O (stereo not drawn) [2,4,5-trifluorophenyl] | 52.2 |

Same assay, conditions: XCGCGCG; Van't Hoff plots

| SMILES | −ΔG37 [kcal] | −ΔH [kcal] | −ΔS [eu] |
| --- | --- | --- | --- |
| OC[C@H]1O[C@@H](c2cc(F)c(F)c(F)c2F)C[C@@H]1O [2,3,4,5-tetrafluorophenyl, 1′,2′-dideoxy-β-1′-(2,3,4,5-tetrafluorophenyl)-D-ribofuranose] | 10.3 ± 0.2 | 53.8 | 93 |
| OCC1OC(c2cc(F)c(F)cc2F)CC1O (stereo not drawn) [2,4,5-trifluorophenyl] | 10.1 ± 0.3 | 55.0 | 145 |

Same assay, conditions: XCGCGCG; average from fits to individual melting curves

| SMILES | −ΔG37 [kcal] |
| --- | --- |
| OC[C@H]1O[C@@H](c2cc(F)c(F)c(F)c2F)C[C@@H]1O [2,3,4,5-tetrafluorophenyl, 1′,2′-dideoxy-β-1′-(2,3,4,5-tetrafluorophenyl)-D-ribofuranose] | 10.2 ± 0.2 |
| OCC1OC(c2cc(F)c(F)cc2F)CC1O (stereo not drawn) [2,4,5-trifluorophenyl] | 10.0 ± 0.1 |

Same assay, conditions: XCGCGCG; difference from core duplex

| SMILES | ΔΔG stacking |
| --- | --- |
| OC[C@H]1O[C@@H](c2cc(F)c(F)c(F)c2F)C[C@@H]1O [2,3,4,5-tetrafluorophenyl, 1′,2′-dideoxy-β-1′-(2,3,4,5-tetrafluorophenyl)-D-ribofuranose] | 2.2 ± 0.2 |
| OCC1OC(c2cc(F)c(F)cc2F)CC1O (stereo not drawn) [2,4,5-trifluorophenyl] | 2.0 ± 0.2 |

Same assay, conditions: XCGCGCG; vs core duplex

| SMILES | ΔTm [°C] |
| --- | --- |
| OC[C@H]1O[C@@H](c2cc(F)c(F)c(F)c2F)C[C@@H]1O [2,3,4,5-tetrafluorophenyl, 1′,2′-dideoxy-β-1′-(2,3,4,5-tetrafluorophenyl)-D-ribofuranose] | 12.6 |
| OCC1OC(c2cc(F)c(F)cc2F)CC1O (stereo not drawn) [2,4,5-trifluorophenyl] | 10.8 |

Tested on: 5′XCGCGCG3′
Assay: Dangling end stacking in 6-bp self-complementary DNA (Table S3)
Format: physicochemical
Settings: 5′XCGCGCG3′ dangling base
Description: To seek evidence for the origins of this selectivity, we examined individual properties of the four nonpolar nucleoside analogues. Stacking was evaluated by the standard dangling end approach using a 6-bp self-complementary DNA.
Calculations. […] (Table 4 and Table 5)

| SMILES | ΔG°37 (Van't Hoff) [kcal] | ΔG°37 (avg.) [kcal] | ΔG°37 (fits) [kcal] | ΔH° (van't Hoff) [kcal] | ΔS° (Van't Hoff) [eu] |
| --- | --- | --- | --- | --- | --- |
| OC[C@H]1O[C@@H](c2cc(F)c(F)c(F)c2F)C[C@@H]1O [2,3,4,5-tetrafluorophenyl, 1′,2′-dideoxy-β-1′-(2,3,4,5-tetrafluorophenyl)-D-ribofuranose] | -10.3 ± 0.2 | -10.2 ± 0.2 | -10.2 ± 0.2 | -53.8 | −93 |

Same assay, conditions: 5′XCGCGCG3′ dangling base; 1 M NaCl, 10 mM phosphate buffer (pH 7.0), 0.1 mM EDTA; 5.0 μM

| SMILES | Tm [°C] |
| --- | --- |
| OC[C@H]1O[C@@H](c2cc(F)c(F)c(F)c2F)C[C@@H]1O [2,3,4,5-tetrafluorophenyl, 1′,2′-dideoxy-β-1′-(2,3,4,5-tetrafluorophenyl)-D-ribofuranose] | 53.9 |

Same assay, conditions: ^FB vs B; ^FI vs I

| SMILES | stacks more favorably than parent hydrocarbon [kcal/mol] |
| --- | --- |
| OC[C@H]1O[C@@H](c2cc(F)c(F)c(F)c2F)C[C@@H]1O [2,3,4,5-tetrafluorophenyl, 1′,2′-dideoxy-β-1′-(2,3,4,5-tetrafluorophenyl)-D-ribofuranose] | 1.0 |

Tested on: XAGCGCT
Assay: Dangling-end thermal denaturation, sequence XAGCGCT (Table 2)
Format: physicochemical
Settings: not given
Description: as §1, §2

| SMILES | G stacking |
| --- | --- |
| OC[C@H]1O[C@@H](c2cc(F)c(F)c(F)c2F)C[C@@H]1O [2,3,4,5-tetrafluorophenyl, 1′,2′-dideoxy-β-1′-(2,3,4,5-tetrafluorophenyl)-D-ribofuranose] | 1.4 |

Same assay, conditions: marker c

| SMILES | −G37 [kcal] | −H [kcal] | −S [eu] |
| --- | --- | --- | --- |
| OC[C@H]1O[C@@H](c2cc(F)c(F)c(F)c2F)C[C@@H]1O [2,3,4,5-tetrafluorophenyl, 1′,2′-dideoxy-β-1′-(2,3,4,5-tetrafluorophenyl)-D-ribofuranose] | 8.3 | 48.4 | 129 |

Same assay, conditions: marker d

| SMILES | −G37 [kcal] |
| --- | --- |
| OC[C@H]1O[C@@H](c2cc(F)c(F)c(F)c2F)C[C@@H]1O [2,3,4,5-tetrafluorophenyl, 1′,2′-dideoxy-β-1′-(2,3,4,5-tetrafluorophenyl)-D-ribofuranose] | 8.3 |

Tested on: XGTAGCTAC
Assay: Dangling-end thermal denaturation, sequence XGTAGCTAC (Table 2)
Format: physicochemical
Settings: not given
Description: as §1, §2

| SMILES | G stacking |
| --- | --- |
| OC[C@H]1O[C@@H](c2cc(F)c(F)c(F)c2F)C[C@@H]1O [2,3,4,5-tetrafluorophenyl, 1′,2′-dideoxy-β-1′-(2,3,4,5-tetrafluorophenyl)-D-ribofuranose] | 1.7 |

Same assay, conditions: marker c

| SMILES | −G37 [kcal] | −H [kcal] | −S [eu] |
| --- | --- | --- | --- |
| OC[C@H]1O[C@@H](c2cc(F)c(F)c(F)c2F)C[C@@H]1O [2,3,4,5-tetrafluorophenyl, 1′,2′-dideoxy-β-1′-(2,3,4,5-tetrafluorophenyl)-D-ribofuranose] | 8.8 | 57.0 | 156 |
| OCC1OC(c2cc(F)c(F)cc2F)CC1O (stereo not drawn) [2,4,5-trifluorophenyl] |  | 72.5 | 204 |

Same assay, conditions: marker d

| SMILES | −G37 [kcal] |
| --- | --- |
| OC[C@H]1O[C@@H](c2cc(F)c(F)c(F)c2F)C[C@@H]1O [2,3,4,5-tetrafluorophenyl, 1′,2′-dideoxy-β-1′-(2,3,4,5-tetrafluorophenyl)-D-ribofuranose] | 8.8 |
| OCC1OC(c2cc(F)c(F)cc2F)CC1O (stereo not drawn) [2,4,5-trifluorophenyl] | 9.1 |

Tested on: XACAGCTGT
Assay: Dangling-end thermal denaturation, sequence XACAGCTGT (Table 1)
Format: physicochemical
Settings: 1 M NaCl, 10 mM sodium phosphate pH 7.0, 5.0 μM DNA-strand
Description: as §3

| SMILES | Tm [°C] |
| --- | --- |
| OC[C@H]1O[C@@H](c2cc(F)c(F)c(F)c2F)C[C@@H]1O [2,3,4,5-tetrafluorophenyl, 1′,2′-dideoxy-β-1′-(2,3,4,5-tetrafluorophenyl)-D-ribofuranose] | 50.9 |
| OCC1OC(c2cc(F)c(F)cc2F)CC1O (stereo not drawn) [2,4,5-trifluorophenyl] | 48.9 |

Same assay, conditions: Van't Hoff plots

| SMILES | −ΔG37 [kcal] | −ΔH [kcal] | −ΔS [eu] |
| --- | --- | --- | --- |
| OC[C@H]1O[C@@H](c2cc(F)c(F)c(F)c2F)C[C@@H]1O [2,3,4,5-tetrafluorophenyl, 1′,2′-dideoxy-β-1′-(2,3,4,5-tetrafluorophenyl)-D-ribofuranose] | 10.7 ± 0.2 | 76.3 | 212 |
| OCC1OC(c2cc(F)c(F)cc2F)CC1O (stereo not drawn) [2,4,5-trifluorophenyl] | 10.1 ± 0.2 | 67.8 | 186 |

Same assay, conditions: average from fits to individual melting curves

| SMILES | −ΔG37 [kcal] |
| --- | --- |
| OC[C@H]1O[C@@H](c2cc(F)c(F)c(F)c2F)C[C@@H]1O [2,3,4,5-tetrafluorophenyl, 1′,2′-dideoxy-β-1′-(2,3,4,5-tetrafluorophenyl)-D-ribofuranose] | 9.8 ± 0.2 |
| OCC1OC(c2cc(F)c(F)cc2F)CC1O (stereo not drawn) [2,4,5-trifluorophenyl] | 9.7 ± 0.1 |

Same assay, conditions: difference from core duplex

| SMILES | ΔΔG stacking |
| --- | --- |
| OC[C@H]1O[C@@H](c2cc(F)c(F)c(F)c2F)C[C@@H]1O [2,3,4,5-tetrafluorophenyl, 1′,2′-dideoxy-β-1′-(2,3,4,5-tetrafluorophenyl)-D-ribofuranose] | 2.3 ± 0.2 |
| OCC1OC(c2cc(F)c(F)cc2F)CC1O (stereo not drawn) [2,4,5-trifluorophenyl] | 1.9 ± 0.2 |

Same assay, conditions: vs core duplex

| SMILES | ΔTm [°C] |
| --- | --- |
| OC[C@H]1O[C@@H](c2cc(F)c(F)c(F)c2F)C[C@@H]1O [2,3,4,5-tetrafluorophenyl, 1′,2′-dideoxy-β-1′-(2,3,4,5-tetrafluorophenyl)-D-ribofuranose] | 10.0 |
| OCC1OC(c2cc(F)c(F)cc2F)CC1O (stereo not drawn) [2,4,5-trifluorophenyl] | 9.0 |

Tested on: not listed separately
Assay: Octanol-water partitioning of free nucleosides
Settings: not given
Description: We explicitly examined hydrophobicity of the four nucleosides by partitioning between 1-octanol and water.
Octanol-water partitioning. The experimental solvent partitioning studies for free nucleosides were carried out as described. Experiments were carried out in triplicate and the results averaged to increase accuracy.

| SMILES | log P |
| --- | --- |
| OC[C@H]1O[C@@H](c2cc(F)c(F)c(F)c2F)C[C@@H]1O [2,3,4,5-tetrafluorophenyl, 1′,2′-dideoxy-β-1′-(2,3,4,5-tetrafluorophenyl)-D-ribofuranose] | 1.39 (0.10) |
